Patent US20230286973A1, “PROTEIN SECRETION INHIBITORS” (KEZAR LIFE SCIENCES, priority 2020, published 2023)
Like-named read-outs stand apart in the source and are kept apart here.

Tests used:
[1] = test system: HER3-ss+4aa/Gaussia Luciferase; assay: Dox-Induced Her3-ss-Gluc Assay; type: cell-based; conditions: 24 hr Dox induction, 293FRT/TO cells, read-out: 24 hr Dox Inducible Her3(ss + 4)Gluc 293FRT/TO: Mean IC50
Method in brief: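 Stable Flp-In 293 T-REx cells carried a doxycycline-inducible HER3 signal sequence (+4 aa) fused to Gaussia luciferase. Cells were plated the day before the assay. Compound dilutions in DMSO/media containing doxycycline were then added, and plates were incubated at 37 °C, 5% CO2.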

[2] = test system: TNFα-FL/Gaussia Luciferase; assay: Dox Induced TNFα-FL-Gluc Assay; type: cell-based; conditions: for IC50: 24 hr Dox induction, 293FRT/TO cells, read-out: 24 hr Dox Inducible TNFaFLGluc 293FRT/TO: Mean IC50; for 24 hr Dox Inducible TNFaFLGluc 293FRT/TO: TNF/PD1: ratio of TNFaFLGluc IC50 to PD1ssGluc IC50
Method in brief: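 Flp-In 293 T-REx cells stably carrying doxycycline-inducible full-length TNFα (aa 1-233) fused to Gaussia luciferase. Plated the day before, then treated with compound dilutions in doxycycline-containing medium at 37° C, 5% CO2.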

[3] = test system: multiple myeloma cell line NCI-H929; assay: H929 Cell Viability Assay; type: cell-based, human; conditions: Homo sapiens, NCI-H929, 48 h, NCI-H929 cells, Celltiter-Glo
Method in brief: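 NCI-H929 cells in RPMI 1640 with 10% FBS were treated with compound dilutions for 48 h at 37° C, 5% CO2. Viability was read by CellTiter-Glo luminescence. Undefined stereocentres denote stereoisomer mixtures.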

[4] = Liver Microsome Stability Assay (monkey); conditions: monkey liver microsomes, with NADPH, 1.0 uM compound
Protocol: (§1) Stability of a compound was assessed in the presence of liver microsomes from various sources—mouse, rat, monkey and human liver microsomes. 1.0 uM compound, 0.4% DMSO in 0.1 M Potassium Phosphate with 1.0 mg/mL liver microsomes, were incubated at 37° C. with or without 1 mM NADPH. The samples were quenched at 0, and 30 minutes.

[5] = Liver Microsome Stability Assay (human); conditions: human liver microsomes, with NADPH, 1.0 uM compound
Protocol: as §1

[6] = Liver Microsome Stability Assay (rat); conditions: rat liver microsomes, with NADPH, 1.0 uM compound
Protocol: as §1

[7] = test system: IL-2-FL/Gaussia Luciferase; assay: Dox Induced IL2-FL-Gluc Assay; type: cell-based; conditions: for IC50: 24 hr Dox induction, 293FRT/TO cells, read-out: 24 hr Dox Inducible IL2FLGluc 293FRT/TO: Mean IC50; for 24 hr Dox Inducible IL2FLGluc 293FRT/TO: IL2/PD1: ratio of IL2FLGluc IC50 to PD1ssGluc IC50
Method in brief: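 Stable Flp-In 293 T-REx cells carrying doxycycline-inducible full-length IL-2 (aa 1-153) fused to Gaussia luciferase, plated the day before assay. Compound dilutions added in medium containing doxycycline, incubated at 37 °C, 5% CO2. Undefined stereocentres mean data refer to stereoisomer mixtures.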

[8] = test system: multiple myeloma cell line U266B1; assay: U266 Cell Viability Assay; type: cell-based, human; conditions: Homo sapiens, U-266, 48 h, U266B1 cells, Celltiter-Glo
Method in brief: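 U266B1 multiple myeloma cells in RPMI 1640/10% FBS were treated with compound dilutions for 48 h at 37 °C, 5% CO2. Viability was measured by CellTiter-Glo luminescence; compounds drawn without stereochemistry were tested as stereoisomer mixtures.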

[9] = test system: PD1-ss+10aa/Gaussia Luciferase; assay: Dox-Induced PD1-ss-Gluc Assay; type: cell-based; conditions: 24 hr Dox induction, 293FRT/TO cells, read-out: 24 hr Dox Inducible PD1ssGluc 293FRT/TO: Mean IC50
Method in brief: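 Gaussia luciferase fused downstream of the PD1 signal peptide plus 10 residues was expressed on doxycycline induction in stably transfected Flp-In 293 T-REx cells. Compounds were added with doxycycline and incubated at 37 °C, 5% CO2.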

[10] = Liver Microsome Stability Assay (mouse); conditions: mouse liver microsomes, with NADPH, 1.0 uM compound
Protocol: as §1

[11] = '<=>' given where both are I.A.

SMILES | IC50 ([1]; mean) | IC50 ([2]; mean) | 24 hr Dox Inducible TNFaFLGluc 293FRT/TO: TNF/PD1 [2, 11] | EC50 [3] | Liver Microsome Stability (Multiple Species): Monkey - % Remaining after 30 min w/NADPH [4] | Liver Microsome Stability (Multiple Species): Human - % Remaining after 30 min w/NADPH [5] | Liver Microsome Stability (Multiple Species): Rat - % Remaining after 30 min w/NADPH [6] | IC50 ([7]; mean) | 24 hr Dox Inducible IL2FLGluc 293FRT/TO: IL2/PD1 [7, 11] | EC50 [8] | IC50 ([9]; mean) | Liver Microsome Stability (Multiple Species): Mouse - % Remaining after 30 min w/NADPH [10] | IC50 [1] | IC50 [2] | 24 hr Dox Inducible TNFaFLGluc 293FRT/TO: TNF/PD1 [2] | IC50 [7] | 24 hr Dox Inducible IL2FLGluc 293FRT/TO: IL2/PD1 [7] | IC50 [9]
COc1ccc(O[C@H]2CC[C@H](c3csc(NC(=O)c4cccn4Cc4ccncc4)n3)C2)nc1 [Compound E38, N-(4-((1S,3S)-3-((5-methoxypyridin-2-yl)oxy)cyclopentyl)thiazol-2-yl)-1-(pyridin-4-ylmethyl)-1H-pyrrole-2-carboxamide] | 1.12 µM | 5.28 µM | 10.7 | 23.8 µM | 0.13% | 0.1% | 0.33% | 1.87 µM | 3.8 | 23 µM | 0.493 µM | 0.25% | – | – | – | – | – | –
O=C(Nc1nc([C@H]2CCCN2c2ccc(C3CCCNC3)cc2)cs1)c1cccn1Cc1ccncc1 (stereo partly drawn) [Compound A61, N-(4-((2R)-1-(4-(piperidin-3-yl)phenyl)pyrrolidin-2-yl)thiazol-2-yl)-1-(pyridin-4-ylmethyl)-1H-pyrrole-2-carboxamide] | – | – | – | 6.29 µM | 5.11% | 2.45% | 22.8% | – | – | 5.52 µM | – | 54.5% | 1.57 µM | 11.6 µM | 12.7 | 3.22 µM | 3.5 | 0.917 µM
O=C(Nc1nc(/C=C/c2cn(C3CCOCC3)cn2)cs1)c1cccn1Cc1ccnc(F)c1 [Compound B92, (E)-1-((2-fluoropyridin-4-yl)methyl)-N-(4-(2-(1-(tetrahydro-2H-pyran-4-yl)-1H-imidazol-4-yl)vinyl)thiazol-2-yl)-1H-pyrrole-2-carboxamide] | – | – | – | 22.8 µM | 0.04% | 0.19% | 2.02% | – | – | > 25 µM | – | 6.38% | > 25 µM | > 25 µM | >345 | 12.1 µM | 170 | 0.0724 µM
CN1CC(OC(=O)Nc2ccc(N3CCC[C@@H]3c3csc(NC(=O)c4cccn4Cc4ccnc(F)c4)n3)cc2)C1 [Compound A173, 1-methylazetidin-3-yl (R)-(4-(2-(2-(1-((2-fluoropyridin-4-yl)methyl)-1H-pyrrole-2-carboxamido)thiazol-4-yl)pyrrolidin-1-yl)phenyl)carbamate] | – | – | – | 0.842 µM | 54.6% | 70.3% | 17.4% | – | – | 8.75 µM | – | 23.8% | 0.0269 µM | 0.323 µM | 20.3 | 0.0404 µM | 2.5 | 0.0159 µM
O=C(Nc1nc(C2C3CN(c4ccccc4)CC32)cs1)c1cccn1Cc1ccncc1 (centres unmarked) [Compound E36, N-(4-(3-phenyl-3-azabicyclo[3.1.0]hexan-6-yl)thiazol-2-yl)-1-(pyridin-4-ylmethyl)-1H-pyrrole-2-carboxamide] | 0.89 µM | 5.07 µM | 17.8 | > 25 µM | 0.83% | 1.63% | 1.49% | 1.71 µM | 6 | 13.8 µM | 0.284 µM | 27.8% | – | – | – | – | – | –
O=C(NC1=NC(/C=C/c2ccccc2)CS1)c1cccn1Cc1ccncc1 (centres unmarked) [Compound E51] | > 25 µM | > 25 µM | – | > 25 µM | 0.06% | 0.01% | 0.98% | > 25 µM | 1 | > 25 µM | > 25 µM | 0.08% | – | – | – | – | – | –
NS(=O)(=O)N1CC(Oc2ccc(N3CCC[C@@H]3c3csc(NC(=O)c4cccn4Cc4ccnc(F)c4)n3)cc2)C1 [Compound A150, (R)-1-((2-fluoropyridin-4-yl)methyl)-N-(4-(1-(4-((1-sulfamoylazetidin-3-yl)oxy)phenyl)pyrrolidin-2-yl)thiazol-2-yl)-1H-pyrrole-2-carboxamide] | – | – | – | 3.27 µM | 0.71% | 17.4% | 51.6% | – | – | > 25 µM | – | 36.3% | 0.0821 µM | 0.758 µM | 15.4 | 0.13 µM | 2.6 | 0.0492 µM
Cc1ccc(/C=C/c2csc(NC(=O)c3cccn3Cc3ccncc3)n2)nc1F [Compound B48, (E)-N-(4-(2-(6-fluoro-5-methylpyridin-2-yl)vinyl)thiazol-2-yl)-1-(pyridin-4-ylmethyl)-1H-pyrrole-2-carboxamide] | – | – | – | > 25 µM | 1.39% | 8.85% | 1.44% | – | – | > 25 µM | – | 1.17% | 0.127 µM | 4.14 µM | 184 | 0.576 µM | 26 | 0.0225 µM
N#CC[C@H](O)Cn1cccc1C(=O)Nc1nc([C@H]2CCCN2c2ccccc2)cs1 [Compound C100, 1-((S)-3-cyano-2-hydroxypropyl)-N-(4-((R)-1-phenylpyrrolidin-2-yl)thiazol-2-yl)-1H-pyrrole-2-carboxamide] | 15.9 µM | > 25 µM | >3.27 | > 25 µM | 18.5% | 19.1% | 13.6% | 6.46 µM | 0.85 | > 25 µM | 7.64 µM | 19.8% | – | – | – | – | – | –
